The values below come from patent US20180370940A1, “SALICYLIC ACID DERIVATIVE, METHOD FOR PREPARING SAME, AND COSMETIC COMPOSITION FOR WHITENING COMPRISING SAME” (AMOREPACIFIC CORPORATION, priority 2015, published 2018).

In the test the target is Mushroom-derived tyrosinase. Description: Inhibitory effect on tyrosinase activity (mushroom tyrosinase, L-tyrosine substrate, absorbance at 490 nm). Type of test: biochemical. The note with it: for IC50: mushroom tyrosinase, 1.5 mM L-tyrosine, pH 6.5, 37° C. for 20 minutes, absorbance at 490 nm, read-out: Inhibition of tyrosinase activity (IC50); for inhibitory effect on tyrosinase activity (in words): at a concentration of 200 μM or less. As for the experimental part: In order to investigate the tyrosinase activity inhibitory effect of the salicylic acid derivatives prepared in Examples 1 to 6, the following experiment was conducted. Mushroom-derived tyrosinase and tyrosine were purchased from Sigma Chemical. Each sample was treated with 150 microliters of 0.1 M phosphate buffer (pH 6.5), 8 microliters of mushroom tyrosinase (2,100 units/ml, 0.05 M phosphate buffer, pH 6.5) and 36 microliters of 1.5 mM L-tyrosine by concentration. After the enzymatic reaction was carried out at 37° C. for 20 minutes, the activity of tyrosinase was measured by measuring the absorbance at 490 nm using a microplate reader (Bio-Rad 3550, Richmond, Calif., U.S.A.). The inhibitory effect of tyrosinase of the salicylic acid derivatives prepared in Examples 1 to 6 was determined based on the following Equation (1). Tyrosinase inhibition ratio (%)=100−((Reaction absorbance of each sample/reaction absorbance of the control group)×100) [Equation 1] The concentration of each test substance which decreased the activity of tyrosinase by 50% was determined by the above Equation, and the obtained results are shown in Table 1.

Each structure is given as a SMILES string.

By IC50 is commonly meant the concentration that gives 50% inhibition.

In the case of `Cc1ccc(O)c(C(=O)OCc2cc(=O)c(O)co2)c1` [Compound of Example 3, 2-hydroxy-5-methyl-benzoic acid 5-hydroxy-4-oxo-4H-pyran-2-ylmethyl ester], the IC50 was 5.3 µM.

On to `COc1ccc(O)c(C(=O)OCc2cc(=O)c(O)co2)c1` [Compound of Example 6, 2-Hydroxy-5-methoxy-benzoic acid 5-hydroxy-4-oxo-4H-pyran-2-ylmethyl ester], for which the half-maximal inhibitory concentration (IC50) is 3.29 µM.

Turning to `Cc1cccc(C(=O)OCc2cc(=O)c(O)co2)c1O` [Compound of Example 1, 2-hydroxy-3-methyl-benzoic acid 5-hydroxy-4-oxo-4H-pyran-2-ylmethyl ester], the 50% inhibitory concentration (IC50) was found to be 3.2 µM.

In the case of `O=c1cc(CO)occ1O` [Kojic acid, reference compound], the IC50 turned out to be 41 µM.

As for `Cc1cccc(C(=O)O)c1O` [3-Methylsalicylic acid, reference compound], the “inhibitory effect on tyrosinase activity (in words)” value is “do not exhibit the inhibitory effect” and the 50% inhibitory concentration (IC50) is greater than 200 µM.

For `Cc1ccc(C(=O)OCc2cc(=O)c(O)co2)c(O)c1` [Compound of Example 2, 2-hydroxy-4-methyl-benzoic acid 5-hydroxy-4-oxo-4H-pyran-2-ylmethyl ester], the IC50 stood at 1.51 µM.

With `COc1cccc(C(=O)O)c1O` [3-Methoxysalicylic acid, reference compound], the “inhibitory effect on tyrosinase activity (in words)” value is recorded as “do not exhibit the inhibitory effect” and the concentration for half-maximal inhibition (IC50) was greater than 200 µM.

As for `COc1ccc(C(=O)OCc2cc(=O)c(O)co2)c(O)c1` [Compound of Example 5, 2-hydroxy-4-methoxy-benzoic acid 5-hydroxy-4-oxo-4H-pyran-2-ylmethyl ester], the half-inhibitory concentration (IC50) was determined as 4.2 µM.

Turning to `COc1cccc(C(=O)OCc2cc(=O)c(O)co2)c1O` [Compound of Example 4, 2-hydroxy-3-methoxy-benzoic acid 5-hydroxy-4-oxo-4H-pyran-2-ylmethyl ester], the 50% inhibitory concentration (IC50) was 4.21 µM.
